According to patent US8916204B2, “SPARC and methods of use thereof” (Abraxis BioScience, LLC, priority 2004, dated 2014):

System: endothelial monolayers (gp60-mediated caveolar transcytosis)
Test: inhibition of transport of paclitaxel from ABX across endothelial monolayers
Type: in vitro ADME, human
Text: Transport was dependent on albumin.

Molecule | effect on transport of paclitaxel from ABX
CCN1C(=O)C=CC1=O [NEM] | inhibited
[…]-methyl cyclodextrin [BMC] | inhibited
